Legend:
[1] = system: hyperoxia-exposed mice; test: Lung mechanics: methacholine challenge after neonatal hyperoxia (BPD model), flexiVent Rrs; assay type: in vivo, C57BL/6 mice; settings: for Rrs in response to aerosolized methacholine challenge (airway hyperreactivity): 3-week-old mice raised in hyperoxia (60%), compared with room air controls; for Rrs increase in hyperoxia, methacholine dose response (FIG. 5A-B): at 3 weeks and after room air recovery at 6 weeks of age; for Rrs in response to aerosolized methacholine challenge (airway hyperresponsiveness): six-week-old mice, 3 weeks neonatal hyperoxia then room air recovery
Description: Animal protocols were approved by the Institutional Animal Care and Use Committee at Case Western Reserve University (Cleveland, Ohio). Timed pregnant C57BL/6 mice (Charles River Laboratories, Wilmington, Mass.) were maintained on 12-hour light-dark cycles with ad libitum standard food and water. Within 24 hours of birth, litters were pooled and randomized into exposure groups. Paired with a nursing dam, pups were raised in 60% oxygen or room air (21%) for 21 days. Hyperoxia-exposed animals were housed in standard cages placed in a 38-L Plexiglas chamber with a continuous flow of blended oxygen (2 L/min). Oxygen concentrations were monitored twice daily via an oxygen analyzer (miniOX I; MSA Medical, Gurnee, Ill.). To control for oxygen exposures, nursing dams were rotated between paired litters during weekly cage changes. Ventilator studies were conducted and/or tissue harvested within 24 hours of removal from hyperoxia at 3 weeks. A subgroup of animals was returned to room air following 3 weeks of initial hyperoxia exposure and subsequently recovered to 6 weeks of age for adult lung mechanic and GSNOR activity studies.
N6022 is a selective small molecule reversible inhibitor of GSNOR. Powdered N6022 (Nivalis Therapeutics, Boulder, Colo., purchased through MedChem Express, Monmouth Junction, N.J.) was reconstituted in sterile PBS (pH 7.4) and administered to hyperoxia exposed mice as a single 1 mg/kg i.p. injection the day prior to testing lung mechanics.
Under general anesthesia (i.p. ketamine/xylazine), mice were placed supine on a heated surgical table, tracheostomized, and ventilated via a 19-gauge blunt-tip cannula with a commercial rodent ventilator (flexiVent; SCIREQ, Montreal, Canada). Animals were paralyzed (i.p. pancuronium bromide; Sigma-Aldrich) and ventilated at default settings: tidal volume of 10 mL/kg, a rate of 150 breaths/min, a positive end expiratory pressure of 3 cm H2O, and a FiO2 of 50%. Following two recruitment deep inflations of sustained inspiration up to a pressure of 30 cm H2O for 3 seconds, 10 mM GSNO or saline vehicle was aerosolized over 10 seconds using an ultrasonic nebulizer (Aeroneb; SCIREQ) diverted into the ventilator's inspiratory flow. Inhaled GSNO concentration was chosen based upon the published studies in ventilated guinea pigs and human trials in cystic fibrosis. After 5 minutes had elapsed, two recruitment deep inflations were again delivered, and increasing methacholine doses of 0, 12.5, 25, 50, 100, and 200 mg/mL were similarly aerosolized over 10 seconds to generate a dose-response curve. Using computer software (flexiWare 5.1, Version 7.2, SCIREQ), five measurements of respiratory system resistance (Rrs) were calculated by a 2.5 Hz single-frequency forced oscillation maneuver (Snapshot 150), and an average was reported for each methacholine dose. Respiratory mechanics were measured in both 3-week-old mice immediately following sustained hyperoxia exposure and separate 6-week-old mice that were recovered in room air following the initial 3 weeks of hyperoxia exposure.
Data are expressed as means±S.E.M. A minimum of two litters or experiments was used for each study; n represent individual animals or cell transfections. Data containing two groups were first tested for normality and variance and then analyzed by two sample student t test, Welch's t test, or Mann-Whitney U test, as appropriate. For multiple comparisons, analysis of variance with Tukey-Kramer post hoc test was used. Alterations in airway reactivity with increasing doses of methacholine were compared by two-way analysis of variance repeated-measures analysis with Tukey-Kramer post hoc comparisons using a fixed-sequence method from highest to lowest methacholine dose. P, 0.05 was considered statistically significant.

[2] = system: room air-exposed mice; test: Lung mechanics: methacholine challenge in room air-exposed mice, flexiVent Rrs; assay type: in vivo, C57BL/6 mice; settings: both ages (3 and 6 weeks), GSNO pretreatment, data not shown
Description: Animal protocols were approved by the Institutional Animal Care and Use Committee at Case Western Reserve University (Cleveland, Ohio). Timed pregnant C57BL/6 mice (Charles River Laboratories, Wilmington, Mass.) were maintained on 12-hour light-dark cycles with ad libitum standard food and water. Within 24 hours of birth, litters were pooled and randomized into exposure groups. Paired with a nursing dam, pups were raised in 60% oxygen or room air (21%) for 21 days. Hyperoxia-exposed animals were housed in standard cages placed in a 38-L Plexiglas chamber with a continuous flow of blended oxygen (2 L/min). Oxygen concentrations were monitored twice daily via an oxygen analyzer (miniOX I; MSA Medical, Gurnee, Ill.). […]
Under general anesthesia (i.p. ketamine/xylazine), mice were placed supine on a heated surgical table, tracheostomized, and ventilated via a 19-gauge blunt-tip cannula with a commercial rodent ventilator (flexiVent; SCIREQ, Montreal, Canada). […] Using computer software (flexiWare 5.1, Version 7.2, SCIREQ), five measurements of respiratory system resistance (Rrs) were calculated by a 2.5 Hz single-frequency forced oscillation maneuver (Snapshot 150), and an average was reported for each methacholine dose. […]
Data are expressed as means±S.E.M. A minimum of two litters or experiments was used for each study; n represent individual animals or cell transfections. […]

[3] = Gaston et al. 1994; cited from earlier work

SMILES	Rrs in response to aerosolized methacholine challenge (airway hyperreactivity) ([1]; pretreatment 10 mM GSNO aerosol over 10 seconds)	Rrs increase in hyperoxia, methacholine dose response (FIG. 5A-B) ([1]; 10 mM GSNO aerosol)	Rrs in response to aerosolized methacholine challenge (airway hyperresponsiveness) ([1]; pretreatment 10 mM GSNO aerosol)	Rrs compared with room air saline-treated controls [2]	bronchodilator potency relative to theophylline [3] [fold]	Rrs in response to aerosolized methacholine challenge (airway hyperreactivity) ([1]; single 1 mg/kg i.p. injection the day prior)	Rrs increase in hyperoxia, methacholine dose response (FIG. 5A-B) ([1]; 1 mg/kg N6022 injection)	Rrs in response to aerosolized methacholine challenge (airway hyperresponsiveness) ([1]; 1 mg/kg i.p. injection)
N[C@@H](CCC(=O)N[C@@H](CSN=O)C(=O)NCC(=O)O)C(=O)O [GSNO, S-nitrosoglutathione]	attenuated these changes, such that this group was no longer significantly different from room air controls, except at the highest methacholine dose (200 mg/mL)	attenuated these changes	remained effective in attenuating the hyperoxia induced airway hyperresponsiveness	did not significantly change Rrs	100	–	–	–
Cc1cc(C(N)=O)ccc1-n1c(CCC(=O)O)ccc1-c1ccc(-n2ccnc2)cc1 [N6022, reference compound]	–	–	–	–	–	attenuated these changes as well, such that this group was no longer significantly different from room air controls at all methacholine doses	attenuated these changes	remained effective in attenuating the hyperoxia induced airway hyperresponsiveness

Source: patent publication US10537557B2, “Methods of treating respiratory disorders” (CASE WESTERN RESERVE UNIVERSITY, priority 2016, dated 2020)
